Experimental data published in ChEMBL document CHEMBL3885881, “DrugMatrix”.

Species: Rattus norvegicus
Assay: DrugMatrix - Regimen: Daily Repeat
Format: toxicity, organism-based, Sprague-Dawley
Set-up: regimen Daily Repeat, gender Male, age 6-8 weeks
Conditions: in vivo, po, route oral GAVAGE, vehicle .5 % CMC; for ABSOLUTE BASOPHIL / ABSOLUTE EOSINOPHIL / ABSOLUTE LYMPHOCYTE / ABSOLUTE MONOCYTE / ABSOLUTE SEGMENTED NEUTROPHIL / BASOPHIL / EOSINOPHIL / ERYTHROCYTE COUNT / HEMATOCRIT / HEMOGLOBIN / LEUKOCYTE COUNT / LYMPHOCYTE / MEAN CORPUSCULAR HEMOGLOBIN / MEAN CORPUSCULAR HEMOGLOBIN CONCENTRATION / MEAN CORPUSCULAR VOLUME / MONOCYTE / NEUTROPHIL / NUCLEATED RED BLOOD CELLS / PLATELET COUNT: tissue Blood; for ALANINE AMINOTRANSFERASE / ALBUMIN / ALKALINE PHOSPHATASE / ASPARTATE AMINOTRANSFERASE / BLOOD UREA NITROGEN / CARBON DIOXIDE / CHLORIDE / CHOLESTEROL / CREATINE PHOSPHOKINASE / CREATININE / GLUCOSE / LACTATE DEHYDROGENASE / LIPASE / PHOSPHORUS / POTASSIUM / SODIUM / TOTAL BILIRUBIN / TOTAL PROTEIN / URIC ACID: tissue Plasma
[1] = 0 mg/kg, 72 h, dose level Control, time 3 day
[2] = 0 mg/kg, 120 h, dose level Control, time 5 day
[3] = 2000 mg/kg, 72 h, dose level High, time 3 day

O=C1Nc2ccc(Cl)cc2C(c2ccccc2Cl)=NC1O (centres undefined) [LORAZEPAM]
ABSOLUTE BASOPHIL [1]: 0 CELLS/uL | ABSOLUTE EOSINOPHIL [1]: 171.33 CELLS/uL | ABSOLUTE LYMPHOCYTE [1]: 13776.5 CELLS/uL | ABSOLUTE MONOCYTE [1]: 180.83 CELLS/uL | ABSOLUTE SEGMENTED NEUTROPHIL [1]: 1121.33 CELLS/uL | BASOPHIL [1]: 0% | EOSINOPHIL [1]: 1% | ERYTHROCYTE COUNT [1]: 5.56 x10E6/uL | HEMATOCRIT [1]: 34.75% | HEMOGLOBIN [1]: 13.68 G/DL | LEUKOCYTE COUNT [1]: 15.25 x10E3/uL | LYMPHOCYTE [1]: 90.17% | MEAN CORPUSCULAR HEMOGLOBIN [1]: 24.6 pg | MEAN CORPUSCULAR HEMOGLOBIN CONCENTRATION [1]: 39.4 G/DL | MEAN CORPUSCULAR VOLUME [1]: 62.48 fL | MONOCYTE [1]: 1.17% | NEUTROPHIL [1]: 7.67% | NUCLEATED RED BLOOD CELLS [1]: 0 /100WBC | PLATELET COUNT [1]: 1342 x10E3/uL | ALANINE AMINOTRANSFERASE [1]: 49.67 u/L | ALBUMIN [1]: 4.15 G/DL | ALKALINE PHOSPHATASE [1]: 346.83 u/L | ASPARTATE AMINOTRANSFERASE [1]: 108.17 u/L | BLOOD UREA NITROGEN [1]: 17.33 mg/dL | CARBON DIOXIDE [1]: 25 mmol/L | CHLORIDE [1]: 100.83 MEQ/L | CHOLESTEROL [1]: 66.83 mg/dL | CREATINE PHOSPHOKINASE [1]: 788 u/L | CREATININE [1]: 0.18 mg/dL | GLUCOSE [1]: 151.67 mg/dL | LACTATE DEHYDROGENASE [1]: 982.5 u/L | LIPASE [1]: 10.33 u/L | PHOSPHORUS [1]: 11.23 mg/dL | POTASSIUM [1]: 6.37 MEQ/L | SODIUM [1]: 141.02 MEQ/L | TOTAL BILIRUBIN [1]: 0.18 mg/dL | TOTAL PROTEIN [1]: 5.9 G/DL | URIC ACID [1]: 1.8 mg/dL | ABSOLUTE BASOPHIL [2]: 0 CELLS/uL | ABSOLUTE EOSINOPHIL [2]: 69 CELLS/uL | ABSOLUTE LYMPHOCYTE [2]: 13632.83 CELLS/uL | ABSOLUTE MONOCYTE [2]: 139.83 CELLS/uL | ABSOLUTE SEGMENTED NEUTROPHIL [2]: 1225 CELLS/uL | BASOPHIL [2]: 0% | EOSINOPHIL [2]: 0.33% | ERYTHROCYTE COUNT [2]: 5.52 x10E6/uL | HEMATOCRIT [2]: 33.98% | HEMOGLOBIN [2]: 13.22 G/DL | LEUKOCYTE COUNT [2]: 15.07 x10E3/uL | LYMPHOCYTE [2]: 90.83% | MEAN CORPUSCULAR HEMOGLOBIN [2]: 23.95 pg | MEAN CORPUSCULAR HEMOGLOBIN CONCENTRATION [2]: 38.9 G/DL | MEAN CORPUSCULAR VOLUME [2]: 61.53 fL | MONOCYTE [2]: 0.83% | NEUTROPHIL [2]: 8% | NUCLEATED RED BLOOD CELLS [2]: 0 /100WBC | PLATELET COUNT [2]: 1196 x10E3/uL | ALANINE AMINOTRANSFERASE [2]: 49.17 u/L | ALBUMIN [2]: 4.2 G/DL | ALKALINE PHOSPHATASE [2]: 352.33 u/L | ASPARTATE AMINOTRANSFERASE [2]: 89.67 u/L | BLOOD UREA NITROGEN [2]: 18 mg/dL | CARBON DIOXIDE [2]: 27.67 mmol/L | CHLORIDE [2]: 101 MEQ/L | CHOLESTEROL [2]: 72.83 mg/dL | CREATINE PHOSPHOKINASE [2]: 417.5 u/L | CREATININE [2]: 0.18 mg/dL | GLUCOSE [2]: 150.5 mg/dL | LACTATE DEHYDROGENASE [2]: 517.33 u/L | LIPASE [2]: 9 u/L | PHOSPHORUS [2]: 11.87 mg/dL | POTASSIUM [2]: 6.57 MEQ/L | SODIUM [2]: 143.62 MEQ/L | TOTAL BILIRUBIN [2]: 0.2 mg/dL | TOTAL PROTEIN [2]: 6.08 G/DL | URIC ACID [2]: 1.45 mg/dL | ABSOLUTE BASOPHIL [3]: 0 CELLS/uL | ABSOLUTE EOSINOPHIL [3]: 93.33 CELLS/uL | ABSOLUTE LYMPHOCYTE [3]: 11320 CELLS/uL | ABSOLUTE MONOCYTE [3]: 259.33 CELLS/uL | ABSOLUTE SEGMENTED NEUTROPHIL [3]: 1294 CELLS/uL | BASOPHIL [3]: 0% | EOSINOPHIL [3]: 0.67% | ERYTHROCYTE COUNT [3]: 6.11 x10E6/uL | HEMATOCRIT [3]: 38.6% | HEMOGLOBIN [3]: 15.07 G/DL | LEUKOCYTE COUNT [3]: 12.97 x10E3/uL | LYMPHOCYTE [3]: 87.33% | MEAN CORPUSCULAR HEMOGLOBIN [3]: 24.63 pg | MEAN CORPUSCULAR HEMOGLOBIN CONCENTRATION [3]: 39.03 G/DL | MEAN CORPUSCULAR VOLUME [3]: 63.1 fL | MONOCYTE [3]: 2% | NEUTROPHIL [3]: 10% | NUCLEATED RED BLOOD CELLS [3]: 0 /100WBC | PLATELET COUNT [3]: 1214.33 x10E3/uL | ALANINE AMINOTRANSFERASE [3]: 72.67 u/L | ALBUMIN [3]: 4.4 G/DL | ALKALINE PHOSPHATASE [3]: 338 u/L | ASPARTATE AMINOTRANSFERASE [3]: 105.33 u/L | BLOOD UREA NITROGEN [3]: 24 mg/dL | CARBON DIOXIDE [3]: 21.33 mmol/L | CHLORIDE [3]: 99.33 MEQ/L | CHOLESTEROL [3]: 119.67 mg/dL | CREATINE PHOSPHOKINASE [3]: 966.67 u/L | CREATININE [3]: 0.22 mg/dL | GLUCOSE [3]: 161.67 mg/dL | LACTATE DEHYDROGENASE [3]: 346.33 u/L | LIPASE [3]: 16.67 u/L | PHOSPHORUS [3]: 10.23 mg/dL | POTASSIUM [3]: 5.79 MEQ/L | SODIUM [3]: 140.87 MEQ/L | TOTAL BILIRUBIN [3]: 0.27 mg/dL | TOTAL PROTEIN [3]: 6.23 G/DL | URIC ACID [3]: 1.5 mg/dL
